For series [1], the target named is T1, Protein mono-ADP-ribosyltransferase TIPARP (Homo sapiens, UniProt Q7Z3E1).
T1 sequence (Q7Z3E1 whole entry): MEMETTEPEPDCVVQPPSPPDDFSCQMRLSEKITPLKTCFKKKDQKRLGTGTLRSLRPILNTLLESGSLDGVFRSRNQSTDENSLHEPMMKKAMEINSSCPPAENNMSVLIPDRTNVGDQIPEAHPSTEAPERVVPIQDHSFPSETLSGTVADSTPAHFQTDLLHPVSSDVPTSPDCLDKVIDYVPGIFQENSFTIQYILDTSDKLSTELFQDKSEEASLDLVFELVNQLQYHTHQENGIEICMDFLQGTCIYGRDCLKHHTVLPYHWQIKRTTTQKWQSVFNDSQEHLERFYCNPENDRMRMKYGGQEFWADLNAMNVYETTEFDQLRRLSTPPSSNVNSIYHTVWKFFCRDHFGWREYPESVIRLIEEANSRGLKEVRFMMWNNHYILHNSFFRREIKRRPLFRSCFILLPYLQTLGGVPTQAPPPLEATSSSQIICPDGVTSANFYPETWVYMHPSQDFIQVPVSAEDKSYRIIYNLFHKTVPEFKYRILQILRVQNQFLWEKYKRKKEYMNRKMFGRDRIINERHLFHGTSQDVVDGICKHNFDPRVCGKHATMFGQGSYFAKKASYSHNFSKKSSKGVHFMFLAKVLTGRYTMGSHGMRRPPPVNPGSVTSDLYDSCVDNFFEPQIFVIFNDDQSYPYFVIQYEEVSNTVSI
In words: Inhibition of human recombinant N-terminal FLAG tagged PARP7 (400 to 657 end residues) incubated for 1 hr by ELISA assay.

Series [2] in a line: Apparent volume of distribution in ICR mouse at 10 mg/kg, po measured upto 24 hrs by LC-MS/MS analysis. Type of series: ADME, organism-based. Particulars: in vivo.
For series [3], the target named is T2, Poly [ADP-ribose] polymerase tankyrase-1 (Homo sapiens, UniProt O95271).
T2 sequence (O95271 whole entry): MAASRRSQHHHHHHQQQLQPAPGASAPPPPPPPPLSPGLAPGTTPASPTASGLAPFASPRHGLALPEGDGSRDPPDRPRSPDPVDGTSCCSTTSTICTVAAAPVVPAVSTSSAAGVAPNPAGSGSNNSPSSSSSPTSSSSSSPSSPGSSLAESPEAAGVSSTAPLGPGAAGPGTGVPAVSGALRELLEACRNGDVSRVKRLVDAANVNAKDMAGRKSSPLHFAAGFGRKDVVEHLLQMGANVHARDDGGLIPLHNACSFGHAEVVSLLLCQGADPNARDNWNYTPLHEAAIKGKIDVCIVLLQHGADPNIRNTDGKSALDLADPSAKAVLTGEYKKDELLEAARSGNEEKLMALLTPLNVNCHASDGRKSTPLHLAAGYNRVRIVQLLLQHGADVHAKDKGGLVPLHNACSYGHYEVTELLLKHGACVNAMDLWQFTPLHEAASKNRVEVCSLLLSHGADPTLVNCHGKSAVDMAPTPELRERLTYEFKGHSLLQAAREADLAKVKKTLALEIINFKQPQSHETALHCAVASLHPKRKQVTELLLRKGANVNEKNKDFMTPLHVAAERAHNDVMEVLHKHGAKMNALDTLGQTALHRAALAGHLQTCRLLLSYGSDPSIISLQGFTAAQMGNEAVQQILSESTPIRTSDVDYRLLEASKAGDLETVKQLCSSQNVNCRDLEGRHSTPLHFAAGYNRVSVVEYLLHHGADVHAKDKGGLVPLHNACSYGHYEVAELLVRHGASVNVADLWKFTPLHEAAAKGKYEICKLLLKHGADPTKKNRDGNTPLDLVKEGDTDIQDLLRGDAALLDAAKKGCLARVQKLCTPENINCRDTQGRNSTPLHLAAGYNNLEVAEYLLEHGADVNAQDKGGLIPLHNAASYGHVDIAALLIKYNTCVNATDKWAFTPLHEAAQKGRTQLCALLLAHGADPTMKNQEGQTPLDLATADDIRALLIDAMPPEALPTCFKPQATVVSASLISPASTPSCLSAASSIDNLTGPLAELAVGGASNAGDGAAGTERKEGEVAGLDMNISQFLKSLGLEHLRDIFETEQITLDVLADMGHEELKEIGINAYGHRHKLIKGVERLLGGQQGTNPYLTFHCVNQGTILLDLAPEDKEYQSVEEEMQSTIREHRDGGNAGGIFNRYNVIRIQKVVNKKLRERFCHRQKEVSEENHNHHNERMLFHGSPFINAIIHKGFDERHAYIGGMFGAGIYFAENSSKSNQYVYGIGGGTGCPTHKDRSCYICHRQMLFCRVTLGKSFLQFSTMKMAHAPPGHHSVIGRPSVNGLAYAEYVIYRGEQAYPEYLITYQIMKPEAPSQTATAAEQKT
The series is described as follows: Inhibition of human recombinant N-terminal GST-tagged PARP5a (1001 to 1327 end residues) expressed in baculovirus infected Sf9 cells expression system incubated for 1 hr by ELISA assay.

Series [4] has as its system CT26. The series is described as follows: Antitumor activity against mouse CT26 cells implanted in BALB/c mouse assessed as tumor cell contraction at 25 to 100 mg/kg, po bid measured for 14 days by hematoxylin and eosin staining based fluorescence microscopic analysis. Type of series: functional, organism-based. Particulars: dose 25-100 mg/kg, time 14.0 day.
In series [5] the test system is CT26. In words: Antitumor activity against mouse CT26 cells xenografted in BALB/c mouse assessed as tumor growth inhibition at 50 mg/kg, po bid measured for 14 days. Type of series: functional. Particulars: CT26, 336 h, time 14 day, read-out: TGI.

Active and inactive are the calls of the source. The rule behind the calls is not given here.

Usually IC50 stands for the concentration that inhibits the measured activity by half.

Turning to `C[C@@H](CN1CC(C(=O)N2CCN(c3ncc(C(F)(F)F)cn3)CC2)C1)Nc1cn[nH]c(=O)c1C(F)(F)F`, the values for the IC50 in series [1] and in series [3] were 7.6 nM and 174 nM, respectively. Also, the Vz in series [2] was 4.5836 L/kg. Further, in series [4], the outcome was Active. The inhibition in vivo at 50 mg/kg in series [5] is 46%.

Source of the values: ChEMBL document CHEMBL5316291 (J Med Chem, 2023).
